Experiments:
[1] = test system: TAO1; experiment: Kinase panel; type: biochemical; conditions: TAO1, 1 μM
[2] = target: GRK5 (Homo sapiens, UniProt P34947); experiment: biochemical; conditions: read-out: % inhib
[3] = test system: U87 MG Merchant (MG/M) human glioblastoma xenografts
Protocol: All in vivo studies were conducted in compliance with Genentech's Institutional Animal Care and Use Committee. […] Cells in log-phase growth were harvested and resuspended in HBSS:Matrigel (BD Biosciences; Franklin Lakes, N.J.) (1:1, v:v) for injection into female NCr nude mice (Taconic Farms, Cambridge City, Ind.) aged 20 weeks. Animals received five million cells subcutaneously in the right lateral thorax in 0.1 mL. […] The inhibitor was formulated once weekly in 0.5% methylcellulose and 0.2% Tween-80 at concentrations needed for target doses in a volume of 0.2 mL. All formulations were stored in a refrigerator and brought to room temperature and mixed well by vortex before oral administration by gavage once daily for 23 days. Tumor volumes were calculated from perpendicular length and width caliper measurements using the formula: Tumor Volume (mm^3)=0.5×(Length×Width^2). Changes in body weights are reported as a percentage change from the starting weight.
Log 2(tumor volume) growth traces were fitted to each dose group with restricted cubic splines for the dose and fixed time effects. […] Fitted tumor volumes were plotted in the natural scale in Prism (version 5.0b for Mac) (GraphPad Software; La Jolla, Calif.). Linear mixed-effects analysis was also employed using R to analyze the repeated measurement of body weight changes from the same animals over time.
The mice control group was administered the vehicle in the absence of the drug once at the same dosage schedule. Changes in tumor volumes over time by dose for each compound are depicted in FIG. 3 as cubic spline fits generated via Linear Mixed Effects analysis of log-transformed volumes.

[4] = target: T1, human BCRP (Homo sapiens, UniProt Q9UNQ0); experiment: Transport assay in BCRP-MDCKII cell monolayers; type: in vitro ADME; conditions: 2-hour incubation
T1 construct: host or cells: BCRP-MDCKII (canine kidney)
Protocol: (§1) MDR1-MDCKI cells were licensed from the NCI (National Cancer Institute, Bethesda, Md.) and Bcrp1-MDCKII, BCRP-MDCKII and Mdr1a-LLC-PK1 cells were obtained from the Netherlands Cancer Institute (Amsterdam. The Netherlands). […] The compound was dissolved in transport buffer consisting of Hank's balanced salt solution (HBSS) with 10 mM HEPES (Invitrogen Corporation, Grand Island, N.Y.). Lucifer Yellow (Sigma-Aldrich, St. Louis, Mo.) was used as the paracellular and monolayer integrity marker. […] The efflux ratio (ER) was calculated (Papp, B-A/Papp, A-B).

[5] = target: Frk (Homo sapiens, UniProt P42685); experiment: biochemical; conditions: read-out: % inhib
[6] = target: Fyn (Homo sapiens, UniProt P06241); experiment: biochemical; conditions: read-out: % inhib
[7] = target: MST1 (Homo sapiens, UniProt Q13043); experiment: biochemical; conditions: read-out: % inhib
[8] = target: GCK (Homo sapiens, UniProt Q12851); experiment: biochemical; conditions: read-out: % inhib
[9] = target: p70S6K (Homo sapiens, UniProt P23443); experiment: biochemical; conditions: read-out: % inhib
[10] = target: CDK5/p25 (Homo sapiens, UniProt Q00535); experiment: biochemical; conditions: read-out: % inhib
[11] = In vivo pharmacokinetics IV and PO; parameters: species or system female CD-1 mice; conditions: Mouse
Protocol: (§2) The hepatocyte stability of compound IIIat was evaluated across preclinical species. Certain in vivo pharmacokinetic parameters were also evaluated. […] Male Sprague-Dawley rats, female CD-1 mice, male cynomolgus monkeys and beagle dogs were dosed intravenously with 1 mg/kg of compound IIIat prepared in 60% PEG400/10% Ethanol. Compound IIIat was administered orally (PO) at the indicated dose in 0.5% methylcellulose with 0.2% Tween 80 (MCT).

[12] = test system: pS6; experiment: Modulation of pS6 in the brain of healthy mice; type: in vivo, Female CD-1 mice; conditions: single oral dose 25 mg/kg
Protocol: Inhibition of the PI3K pathway was assessed in the brain of healthy mice through measurement of two markers, pAkt and pS6. […] Brains and plasma were collected at 1 and 6 hours post-dose, from 3 animals at each time point. […] For PD analysis, cell extraction buffer (Invitrogen, Camarillo, Calif.) containing 10 mM Tris pH 7.4, 100 mM NaCl, 1 mM EDTA, 1 mM EGTA, 1 mM NaF, 20 mM Na4P2O7, 2 mM Na3VO4, 1% Triton X-100, 10% glycerol, 0.1% SDS, and 0.5% deoxycholate was supplemented with phosphatase, protease inhibitors (Sigma, St. Louis, Mo.) and 1 mM PMSF and added to frozen brain biopsies. Brains were homogenized with a small pestle (Konte Glass Company, Vineland, N.J.), sonicated briefly on ice, and centrifuged at 20,000 g for 20 minutes at 4° C. Protein concentration was determined using BCA protein assay (Pierce, Rockford, Ill.). Proteins were separated by electrophoresis and transferred to NuPage nitrocellulose membranes (Invitrogen, Camarillo, Calif.). Licor Odyssey Infrared detection system (Licor, Lincoln, Nebr.) was used to assess and quantify protein expression. […] The differences in marker levels between the treated and control mice were evaluated using the Student's t-test (Prism 5, GraphPad).

[13] = test system: pAKT; experiment: PI3K pathway modulation in GS2 tumors, western blot; conditions: 15 mg/kg PO daily 4 weeks
Protocol: Each brain was dissected to separate the tumor from the healthy tissues. […] The GS2 tumors isolated from the brains were processed and the PI3K pathway markers pAkt, pS6 and p4EBP1 were measured as described previously.

[14] = Plasma protein binding (PPB %); type: in vitro ADME; conditions: dog
Protocol: as §2

[15] = test system: P-gp and BCRP; experiment: Transport assays in cell monolayers, overall; type: in vitro ADME
Protocol: as §1

[16] = target: InsR (Homo sapiens, UniProt P06213); experiment: biochemical; conditions: read-out: % inhib
[17] = target: T2, mouse Bcrp1 (Mus musculus, UniProt Q7TMS5); experiment: Transport assay in Bcrp1-MDCKII cell monolayers; type: in vitro ADME; conditions: 2-hour incubation
T2 construct: host or cells: Bcrp1-MDCKII (canine kidney)
Protocol: as §1

[18] = target: EphA2 (Homo sapiens, UniProt P29317); experiment: biochemical; conditions: read-out: % inhib

T1 sequence (Q9UNQ0 whole entry): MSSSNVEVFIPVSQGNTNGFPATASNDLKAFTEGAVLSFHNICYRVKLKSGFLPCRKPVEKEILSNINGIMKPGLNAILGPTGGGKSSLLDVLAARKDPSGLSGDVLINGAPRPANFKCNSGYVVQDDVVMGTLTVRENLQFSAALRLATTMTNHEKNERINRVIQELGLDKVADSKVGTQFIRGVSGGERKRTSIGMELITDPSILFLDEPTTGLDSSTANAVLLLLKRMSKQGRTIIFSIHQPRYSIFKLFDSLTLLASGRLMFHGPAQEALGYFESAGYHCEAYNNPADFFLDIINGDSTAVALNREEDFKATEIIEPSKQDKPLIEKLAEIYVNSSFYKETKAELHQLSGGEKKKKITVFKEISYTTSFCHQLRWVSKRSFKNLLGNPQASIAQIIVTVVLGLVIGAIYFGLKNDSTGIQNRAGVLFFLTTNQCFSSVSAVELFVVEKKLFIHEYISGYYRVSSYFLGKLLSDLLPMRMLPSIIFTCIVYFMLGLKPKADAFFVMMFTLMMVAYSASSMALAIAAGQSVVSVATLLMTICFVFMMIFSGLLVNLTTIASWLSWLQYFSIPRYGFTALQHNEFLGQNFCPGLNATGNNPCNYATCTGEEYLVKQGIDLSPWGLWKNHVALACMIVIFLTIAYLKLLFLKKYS
T2 sequence (Q7TMS5 whole entry): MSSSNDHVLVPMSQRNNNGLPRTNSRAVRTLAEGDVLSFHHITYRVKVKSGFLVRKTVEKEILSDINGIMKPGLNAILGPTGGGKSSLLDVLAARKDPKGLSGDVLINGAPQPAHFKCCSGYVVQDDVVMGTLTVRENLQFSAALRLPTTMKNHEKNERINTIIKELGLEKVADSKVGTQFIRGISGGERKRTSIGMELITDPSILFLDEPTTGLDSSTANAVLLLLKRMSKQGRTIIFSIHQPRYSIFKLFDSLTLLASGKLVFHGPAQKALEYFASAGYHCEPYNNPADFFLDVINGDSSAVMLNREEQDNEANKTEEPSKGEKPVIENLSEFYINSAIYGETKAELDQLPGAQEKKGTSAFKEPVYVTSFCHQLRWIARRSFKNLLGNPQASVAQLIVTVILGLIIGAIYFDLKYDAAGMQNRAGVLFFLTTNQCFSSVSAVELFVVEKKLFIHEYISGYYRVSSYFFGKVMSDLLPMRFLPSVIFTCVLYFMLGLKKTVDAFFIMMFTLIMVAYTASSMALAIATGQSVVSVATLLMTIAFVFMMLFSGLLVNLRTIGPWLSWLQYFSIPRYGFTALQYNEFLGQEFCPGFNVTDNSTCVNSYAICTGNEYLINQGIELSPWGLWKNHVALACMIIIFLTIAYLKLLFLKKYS
GRK5, sequence (P34947 whole entry): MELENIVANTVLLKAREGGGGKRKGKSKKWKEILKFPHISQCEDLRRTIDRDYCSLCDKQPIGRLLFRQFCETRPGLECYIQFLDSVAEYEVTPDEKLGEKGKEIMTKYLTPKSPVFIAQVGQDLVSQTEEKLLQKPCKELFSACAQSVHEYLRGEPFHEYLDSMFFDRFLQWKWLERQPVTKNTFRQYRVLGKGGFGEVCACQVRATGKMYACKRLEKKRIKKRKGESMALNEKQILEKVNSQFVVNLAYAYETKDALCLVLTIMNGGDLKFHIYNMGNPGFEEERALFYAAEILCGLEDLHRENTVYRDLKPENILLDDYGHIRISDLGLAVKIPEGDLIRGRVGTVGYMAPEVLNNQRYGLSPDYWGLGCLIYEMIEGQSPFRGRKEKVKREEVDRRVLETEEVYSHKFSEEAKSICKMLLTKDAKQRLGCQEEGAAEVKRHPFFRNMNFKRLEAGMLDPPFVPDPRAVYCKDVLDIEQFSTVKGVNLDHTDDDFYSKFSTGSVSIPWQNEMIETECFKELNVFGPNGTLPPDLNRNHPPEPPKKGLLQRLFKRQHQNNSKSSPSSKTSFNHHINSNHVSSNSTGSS
CDK5/p25, sequence (Q00535 whole entry, species assumed): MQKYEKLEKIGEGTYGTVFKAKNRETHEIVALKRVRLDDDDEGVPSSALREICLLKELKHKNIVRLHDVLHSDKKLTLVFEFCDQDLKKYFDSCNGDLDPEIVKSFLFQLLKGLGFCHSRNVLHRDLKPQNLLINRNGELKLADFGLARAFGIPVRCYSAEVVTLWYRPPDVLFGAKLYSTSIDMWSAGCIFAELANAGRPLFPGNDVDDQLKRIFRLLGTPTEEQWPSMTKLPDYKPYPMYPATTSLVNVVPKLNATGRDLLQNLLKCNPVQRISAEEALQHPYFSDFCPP
CDK5/p25, sequence (Q15078 99-307 partner limits assumed, species assumed): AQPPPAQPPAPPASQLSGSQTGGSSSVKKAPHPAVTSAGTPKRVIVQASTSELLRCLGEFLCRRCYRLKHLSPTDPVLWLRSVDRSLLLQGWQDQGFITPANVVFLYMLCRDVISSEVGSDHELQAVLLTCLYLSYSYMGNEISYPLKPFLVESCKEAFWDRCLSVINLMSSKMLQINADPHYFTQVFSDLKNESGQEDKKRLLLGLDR
InsR, sequence (P06213 28-1382, species assumed): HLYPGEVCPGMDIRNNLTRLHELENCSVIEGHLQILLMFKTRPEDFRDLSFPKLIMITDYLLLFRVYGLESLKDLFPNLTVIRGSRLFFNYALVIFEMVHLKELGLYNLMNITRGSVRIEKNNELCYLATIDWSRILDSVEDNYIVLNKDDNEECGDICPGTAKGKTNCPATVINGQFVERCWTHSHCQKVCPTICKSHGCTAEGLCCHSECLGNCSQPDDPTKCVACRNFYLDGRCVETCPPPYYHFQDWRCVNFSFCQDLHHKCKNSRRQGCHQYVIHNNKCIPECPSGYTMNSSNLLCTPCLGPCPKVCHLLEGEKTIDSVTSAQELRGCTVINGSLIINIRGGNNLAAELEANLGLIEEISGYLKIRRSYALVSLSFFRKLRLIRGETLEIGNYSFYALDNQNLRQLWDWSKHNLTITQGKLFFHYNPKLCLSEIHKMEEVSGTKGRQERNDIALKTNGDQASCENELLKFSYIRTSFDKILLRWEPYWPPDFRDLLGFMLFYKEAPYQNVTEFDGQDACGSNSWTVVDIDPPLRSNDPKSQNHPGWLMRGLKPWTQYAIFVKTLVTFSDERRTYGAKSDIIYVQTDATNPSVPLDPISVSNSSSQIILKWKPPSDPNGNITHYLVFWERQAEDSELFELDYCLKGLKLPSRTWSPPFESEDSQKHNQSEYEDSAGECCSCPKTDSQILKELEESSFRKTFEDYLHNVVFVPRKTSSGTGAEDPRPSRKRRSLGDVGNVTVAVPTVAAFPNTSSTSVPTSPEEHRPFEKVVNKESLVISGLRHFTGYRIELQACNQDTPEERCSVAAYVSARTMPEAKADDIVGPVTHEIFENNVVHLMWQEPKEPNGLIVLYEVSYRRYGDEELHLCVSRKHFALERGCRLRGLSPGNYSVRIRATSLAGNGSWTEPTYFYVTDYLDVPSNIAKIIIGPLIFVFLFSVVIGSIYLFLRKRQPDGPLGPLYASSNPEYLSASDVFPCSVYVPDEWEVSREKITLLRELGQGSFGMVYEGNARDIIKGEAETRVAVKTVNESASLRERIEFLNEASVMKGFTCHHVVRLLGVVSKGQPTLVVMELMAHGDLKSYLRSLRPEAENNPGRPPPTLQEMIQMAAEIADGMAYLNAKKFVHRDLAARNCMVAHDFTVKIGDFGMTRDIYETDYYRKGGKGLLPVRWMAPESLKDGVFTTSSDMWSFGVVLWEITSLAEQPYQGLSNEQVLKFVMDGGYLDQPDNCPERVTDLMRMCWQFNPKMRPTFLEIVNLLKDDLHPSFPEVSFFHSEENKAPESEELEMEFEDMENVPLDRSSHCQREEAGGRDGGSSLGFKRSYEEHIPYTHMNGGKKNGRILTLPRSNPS
MST1, sequence (Q13043 whole entry): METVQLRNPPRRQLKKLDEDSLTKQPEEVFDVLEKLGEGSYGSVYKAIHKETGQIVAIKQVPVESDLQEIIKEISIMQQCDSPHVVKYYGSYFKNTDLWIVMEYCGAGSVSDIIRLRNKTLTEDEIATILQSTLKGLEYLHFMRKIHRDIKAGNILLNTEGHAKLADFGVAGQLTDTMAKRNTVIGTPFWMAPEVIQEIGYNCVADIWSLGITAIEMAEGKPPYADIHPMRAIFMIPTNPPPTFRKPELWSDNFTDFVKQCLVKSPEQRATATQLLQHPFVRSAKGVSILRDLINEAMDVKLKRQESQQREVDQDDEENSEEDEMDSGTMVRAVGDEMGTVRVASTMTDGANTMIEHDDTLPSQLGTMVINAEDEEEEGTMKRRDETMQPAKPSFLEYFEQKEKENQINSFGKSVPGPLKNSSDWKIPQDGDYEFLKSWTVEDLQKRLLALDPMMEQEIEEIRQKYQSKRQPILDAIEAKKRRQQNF
Frk, sequence (P42685 whole entry): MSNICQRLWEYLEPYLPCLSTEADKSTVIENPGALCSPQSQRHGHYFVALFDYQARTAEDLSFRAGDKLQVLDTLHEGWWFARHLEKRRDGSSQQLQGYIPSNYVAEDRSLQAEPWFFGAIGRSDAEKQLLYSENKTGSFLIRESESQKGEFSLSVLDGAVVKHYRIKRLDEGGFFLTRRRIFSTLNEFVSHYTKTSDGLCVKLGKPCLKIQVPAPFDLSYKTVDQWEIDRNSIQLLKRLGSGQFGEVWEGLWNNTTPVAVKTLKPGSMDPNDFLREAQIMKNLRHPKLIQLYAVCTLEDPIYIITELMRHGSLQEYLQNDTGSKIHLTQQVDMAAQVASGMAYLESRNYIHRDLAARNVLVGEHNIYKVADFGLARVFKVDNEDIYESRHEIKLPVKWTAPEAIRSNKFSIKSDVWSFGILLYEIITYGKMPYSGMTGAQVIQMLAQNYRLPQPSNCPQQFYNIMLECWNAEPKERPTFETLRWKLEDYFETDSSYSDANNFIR

**Q.** Which “% inhib” value [1] does the source give for `CC1(C)OCCn2c1nc1c(N3CCOCC3)nc(-c3cnc(N)nc3)nc12` [GDC-0084, 5-(6,6-dimethyl-4-morpholino-8,9-dihydro-6H-[1,4]oxazino[3,4-e]purin-2-yl)pyrimidin-2-amine] here?
**A.** −1.3%

**Q.** What about the inhibition at 1 µM [2] of the same molecule?
**A.** -10%

**Q.** What about the “tumor response at highest dose” value ([3]; 17.9 mg/kg dose level) of the same molecule?
**A.** tumor regressions

**Q.** What about the tumor growth inhibition ([3]; 0.45-17.9 mg/kg oral, 23 days) of the same molecule?
**A.** significant and dose-dependent tumor growth inhibition

**Q.** And the tolerability ([3]; mouse, in vivo)?
**A.** well tolerated

**Q.** And the “dose level at which tumor growth inhibition was first observed” value ([3]; oral dose escalation)?
**A.** 2.2 mg/kg

**Q.** What about the Papp A→B at 2 h, 5 μM [4] of the same molecule?
**A.** 23.2 ± 5.4 ×10⁻⁶ cm/s

**Q.** What about the Papp B→A at 2 h, 5 μM [4] of the same molecule?
**A.** 16 ± 1.1 ×10⁻⁶ cm/s

**Q.** And the inhibition at 1 µM [5]?
**A.** 8%

**Q.** What about the inhibition at 1 µM [6] of the same molecule?
**A.** 9%

**Q.** And the inhibition at 1 µM [7]?
**A.** 5%

**Q.** What about the inhibition at 1 µM [8] of the same molecule?
**A.** 0.9%

**Q.** And the inhibition at 1 µM [9]?
**A.** 6%

**Q.** What about the inhibition at 1 µM [10] of the same molecule?
**A.** 0.3%

**Q.** What about the “In vivo Cl” value ([11]; IV 1 mg/kg) of the same molecule?
**A.** 17 mL/min/kg

**Q.** What about the AUC ([11]; PO 25 mg/kg in MCT) of the same molecule?
**A.** 47 μm·h

**Q.** And the Cmax ([11]; PO 25 mg/kg in MCT)?
**A.** 4.6 μm

**Q.** And the F % ([11]; PO 25 mg/kg in MCT)?
**A.** 75%

**Q.** And the “Suppression of pS6 in brain” value ([12]; 1 hour post dose)?
**A.** 90%

**Q.** And the “Suppression of pS6 in brain” value ([12]; 6 hours after dosing)?
**A.** greater than 70%

**Q.** What about the “reduction of pAkt levels in GS2 tumors” value ([13]; 2 hours after final administration) of the same molecule?
**A.** 90%

**Q.** What about the “reduction of pAkt levels in GS2 tumors” value ([13]; 8 hours after final administration) of the same molecule?
**A.** 70%

**Q.** What about the fraction unbound [14] of the same molecule?
**A.** 0.34

**Q.** And the “substrate of efflux transporters” value ([15]; efflux ratios in MDCK or LLC-PK1 transfected cells)?
**A.** poor substrate of the efflux transporters P-gp and BCRP

**Q.** And the “apparent permeability (Papp), in words” value ([15]; transfected MDCK and LLC-PK1 cells)?
**A.** high and comparable to that of metoprolol

**Q.** And the inhibition at 1 µM [16]?
**A.** 6%

**Q.** And the Papp A→B at 2 h, 5 μM [17]?
**A.** 17.6 ± 2.1 ×10⁻⁶ cm/s

**Q.** And the inhibition at 1 µM [18]?
**A.** -0.7%

From patent publication US11643421B2, “Process for the preparation of tricyclic PI3K inhibitor compounds and methods for using the same for the treatment of cancer” (priority 2015, dated 2023)
